Measurements reported in patent publication EP4596566A1, “COMPOUND PRODUCTION METHOD” (The University of Tokyo, priority 2022, dated 2024).
*1 amine or outer side, *2 acyl side, *3 side chain or, on linkers, in order; H or OH if unused. Where a SMILES comes first, the peptide text is derived from it. Bridges are numbered along the chain shown (N, C = ends). [ ]: non-standard residue; d: D form. The star is where a group is joined. X2 = C=C(N[*:2])c1nc(-c2nc(-c3nc(C(=O)NCCC(=O)NCCOCCOCCCCCCCl)cs3)ccc2C(=O)[*:1])cs1; X1 = C=C(N[*:2])c1nc(-c2nc(-c3nc(C(=O)OC)cs3)ccc2C(=O)[*:1])cs1; Nle = CCCC[C@H](N)C(=O)O; Dhb = C/C=C(\N)C(=O)O; Cam = NC(=O)C*

Tests used:
[1] = system: NFkB reporter gene activity; experiment: NFkB reporter gene assay in THP1-XBlue stable cell line; type: cell-based; settings: read-out: inhibition (IC50) of NFkB reporter gene activity
[2] = Metabolic stability in human serum at 37°C, LC/MS; type: in vitro ADME
Method: The compounds were incubated with a human serum at 37°C, and the amount of the residual test substance at various points in time was quantified by LC/MS with respect to an internal standard substance. […] Next, it was examined whether or not the half-lives of the compounds were affected by the reactivity of the Dha residue. The Dha residue may be conjugated with various serum thiols.
In addition, the metabolic stability of all of the 14 types of candidate thiopeptides was examined. The compound was incubated with the human serum at 37°C, and the amount of the residual thiopeptide at various points in time was quantified by LC/MS with respect to the internal standard substance. The half-life of the thiopeptide for TLR10 was generally as long as 38.2 hours, and the thiopeptide was stable.

TNIK = TNIK (Homo sapiens, UniProt Q9UKE5); experiment: Surface plasmon resonance (SPR) binding affinity to TNIK; settings: ATP 1 mM, 15-fold higher than KM
Chain of TNIK (Q9UKE5 whole entry): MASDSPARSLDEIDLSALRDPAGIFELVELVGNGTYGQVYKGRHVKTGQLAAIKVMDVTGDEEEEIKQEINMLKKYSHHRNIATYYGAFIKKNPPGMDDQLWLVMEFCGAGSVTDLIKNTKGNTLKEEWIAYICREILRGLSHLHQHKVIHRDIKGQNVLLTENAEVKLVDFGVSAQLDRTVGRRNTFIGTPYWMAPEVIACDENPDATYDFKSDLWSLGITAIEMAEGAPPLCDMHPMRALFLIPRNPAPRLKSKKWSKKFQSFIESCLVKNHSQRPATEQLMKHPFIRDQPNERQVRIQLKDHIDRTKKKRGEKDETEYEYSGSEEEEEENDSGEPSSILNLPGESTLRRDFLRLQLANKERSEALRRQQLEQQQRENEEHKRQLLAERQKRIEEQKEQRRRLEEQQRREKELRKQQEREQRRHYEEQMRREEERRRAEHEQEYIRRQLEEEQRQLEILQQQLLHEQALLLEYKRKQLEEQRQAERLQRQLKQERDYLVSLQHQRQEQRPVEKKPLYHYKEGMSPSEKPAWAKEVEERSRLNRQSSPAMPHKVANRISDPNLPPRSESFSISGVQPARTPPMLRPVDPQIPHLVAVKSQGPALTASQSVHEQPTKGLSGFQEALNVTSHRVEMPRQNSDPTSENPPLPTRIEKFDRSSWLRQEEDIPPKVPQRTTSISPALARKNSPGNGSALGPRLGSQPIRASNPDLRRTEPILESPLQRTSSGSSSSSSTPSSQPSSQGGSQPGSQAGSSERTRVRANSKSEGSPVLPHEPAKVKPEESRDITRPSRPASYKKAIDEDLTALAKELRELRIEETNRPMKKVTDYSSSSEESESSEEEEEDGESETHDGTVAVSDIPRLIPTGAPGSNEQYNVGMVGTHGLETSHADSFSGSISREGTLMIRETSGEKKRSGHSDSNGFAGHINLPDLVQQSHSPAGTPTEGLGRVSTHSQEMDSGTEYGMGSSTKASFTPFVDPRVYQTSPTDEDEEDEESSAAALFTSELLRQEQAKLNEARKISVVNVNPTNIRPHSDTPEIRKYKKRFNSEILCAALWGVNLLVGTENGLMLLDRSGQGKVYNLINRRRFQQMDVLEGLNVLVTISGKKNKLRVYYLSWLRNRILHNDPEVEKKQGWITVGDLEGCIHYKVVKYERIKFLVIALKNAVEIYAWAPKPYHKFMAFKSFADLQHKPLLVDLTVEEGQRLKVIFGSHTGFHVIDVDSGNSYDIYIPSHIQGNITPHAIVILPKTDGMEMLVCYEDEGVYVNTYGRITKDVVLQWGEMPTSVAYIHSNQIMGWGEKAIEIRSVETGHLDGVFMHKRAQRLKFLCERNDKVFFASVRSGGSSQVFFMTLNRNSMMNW
Description: Surface plasmon resonance (SPR) was used to evaluate the binding affinity of the thiopeptide synthesized in Example 2 to TNIK.

IRAK4 = target: T1, IRAK4 (Homo sapiens, UniProt Q9NWZ3); experiment: Surface plasmon resonance (SPR) binding affinity to IRAK4
T1 sequence (Q9NWZ3 1-460): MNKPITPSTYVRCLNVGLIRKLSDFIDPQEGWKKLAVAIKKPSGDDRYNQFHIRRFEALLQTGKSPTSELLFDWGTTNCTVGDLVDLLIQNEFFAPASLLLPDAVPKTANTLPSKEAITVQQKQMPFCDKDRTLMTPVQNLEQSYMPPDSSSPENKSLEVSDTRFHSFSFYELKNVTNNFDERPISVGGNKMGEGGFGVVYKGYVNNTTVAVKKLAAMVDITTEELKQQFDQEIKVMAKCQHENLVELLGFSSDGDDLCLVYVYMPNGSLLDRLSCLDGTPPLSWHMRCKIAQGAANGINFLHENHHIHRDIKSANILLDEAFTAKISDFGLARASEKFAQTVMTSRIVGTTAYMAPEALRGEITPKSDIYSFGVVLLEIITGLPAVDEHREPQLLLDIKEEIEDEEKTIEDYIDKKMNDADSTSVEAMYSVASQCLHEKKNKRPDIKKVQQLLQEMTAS
Method: Next, the binding affinity of each of the synthesized thiopeptides (14 types excluding IR1-ct and IR15-ct in Figure 8) to the target IRAK4 and TLR10 was examined using surface plasmon resonance (SPR). […] Next, using an ADP-Glo-based kinase inhibition assay, the IC50 values of 4 types of thiopeptides for IRAK4 excluding IR1-ct and IR15-ct were evaluated.

Row | SMILES | IC50 [1] | half-life (τ1/2) in human serum [2] | further results
1 | C=C1NC(=O)[C@H](CCCCN)NC(=O)[C@H](Cc2ccc(O)cc2)NC(=O)[C@H]([C@@H](C)CC)NC(=O)[C@H](CCCNC(=N)N)NC(=O)[C@H](CCCNC(=N)N)NC(=O)[C@H](CCCCN)NC(=O)[C@H](Cc2ccccc2)NC(=O)[C@H](CC(C)C)NC(=O)[C@H](CCSC)NC(=O)[C@H](CO)NC(=O)[C@H](Cc2c[nH]c3ccccc23)NC(=O)c2ccc(-c3nc(C(=O)NCCC(=O)NCCOCCOCCCCCCCl)cs3)nc2-c2csc1n2 [IR1-ct] (WSMLFKRRIYK; linker N-C via X2) | 7.8 µM | – | –
2 | C=C1NC(=O)/C(=C/C)NC(=O)[C@H](Cc2c[nH]c3ccccc23)NC(=O)[C@H](Cc2c[nH]cn2)NC(=O)[C@H](Cc2c[nH]c3ccccc23)NC(=O)[C@H]([C@@H](C)O)NC(=O)[C@H]([C@@H](C)CC)NC(=O)[C@H](Cc2ccccc2)NC(=O)[C@H](CCC(N)=O)NC(=O)[C@H](CCCNC(=N)N)NC(=O)[C@H](CCCCN)NC(=O)[C@H](CCCC)NC(=O)[C@H](CO)NC(=O)[C@H](Cc2c[nH]c3ccccc23)NC(=O)c2ccc(-c3nc(C(=O)NCCC(=O)NCCOCCOCCCCCCCl)cs3)nc2-c2csc1n2 [IR15-ct] (WS[Nle]KRQFITWHW[Dhb]; linker N-C via X2) | 7 µM | – | –
3 | C=C1NC(=O)[C@H](CCCCN)NC(=O)[C@H](Cc2ccc(O)cc2)NC(=O)[C@H]([C@@H](C)CC)NC(=O)[C@H](CCCNC(=N)N)NC(=O)[C@H](CCCNC(=N)N)NC(=O)[C@H](CCCCN)NC(=O)[C@H](Cc2ccccc2)NC(=O)[C@H](CC(C)C)NC(=O)[C@H](CCSC)NC(=O)[C@H](CO)NC(=O)[C@H](Cc2c[nH]c3ccccc23)NC(=O)c2ccc(-c3nc(C(=O)OC)cs3)nc2-c2csc1n2 [IR1] (WSMLFKRRIYK; linker N-C via X1) | – | – | Kd (IRAK4): 1.3 nM

More lines, main results first:

Row | IC50 [1] | half-life (τ1/2) in human serum [2] | SMILES | further results
4 | – | 88 h | C=C1NC(=O)[C@H](CO)NC(=O)[C@H](CSCC(N)=O)NC(=O)CNC(=O)[C@H](Cc2ccc(O)cc2)NC(=O)[C@H](C)NC(=O)[C@H](CO)NC(=O)[C@H](CC(=O)O)NC(=O)CNC(=O)[C@H](CC(C)C)NC(=O)[C@H](Cc2c[nH]c3ccccc23)NC(=O)[C@H](Cc2c[nH]c3ccccc23)NC(=O)c2ccc(-c3nc(C(=O)OC)cs3)nc2-c2csc1n2 [TP4] (WWLGDSAYGC(Cam)S; linker N-C via X1) | –
5 | – | 14 h | C=C1NC(=O)CNC(=O)[C@H](CC(N)=O)NC(=O)[C@H](CC(C)C)NC(=O)CNC(=O)[C@H](CCCCN)NC(=O)[C@H](C)NC(=O)[C@H]([C@@H](C)CC)NC(=O)[C@H](CO)NC(=O)[C@H](Cc2c[nH]c3ccccc23)NC(=O)[C@H](C)NC(=O)[C@H](Cc2c[nH]c3ccccc23)NC(=O)c2ccc(-c3nc(C(=O)OC)cs3)nc2-c2csc1n2 [TP8] (WAWSIAKGLNG; linker N-C via X1) | binding to TNIK in the presence of the saturated concentration of ATP (TNIK): bonded to TNIK
